Values quoted from earlier work as cited in patent US8592481B2 (Depomed, Inc., priority 2005, dated 2013).

Details: in vivo

1-(aminomethyl)cyclohexane acetic acid [gabapentin]
circulating gabapentin bound to plasma proteins: 3%
